Several values for one entry are separate records, joined by “and”; a condition that tells them apart may be missing. Identical values can stand only once. Like-named read-outs stand apart in the source and are kept apart here.
How the values were obtained:
[1] = cited from earlier work
[2] = set-up: method as in Doerge at al. (2005); conditions: male F344 rats, single dietary exposure ca. 100 µg AA/kg bw, n = 7, direct measurements; ref Doerge at al. (2005); cited from earlier work
[3] = In vivo dose (AUC) in rat calculated from measured Hb adduct levels after AA exposure; conditions: from Hb adduct levels
Procedure: The in vivo dose or AUC of a compound in blood is the concentration integrated over time (Eq. 2).2 AUC=∫tC(t)dt A method to infer the AUC of an electrophilic compound or metabolite from measured Hb adduct levels (A) has been developed and established by our research group for quantitative monitoring of exposure in humans or for application in animal studies[1],[3]. When Hb adduct formation is measured a short time after a single acute exposure, or after incubation in vitro, AUC can be calculated using Eq. 3. This equation is based on A, and the second-order reaction rate constant (kNu) for the formation of an adduct to a nucleophilic site in Hb from the concerned electrophile.3 AUC=A/kNu
For calculating the daily AUC from a longer duration of exposure, the daily adduct level increments (a) have to be calculated considering the accumulation and elimination of adducts due to lifetime of the erythrocytes (t er). […] From continuous or subchronic exposure when the exposure time (t) is shorter than t er, the accumulated adduct level is calculated [a × t × (1 − t/2t er)][49].
For in vivo data on AUC of AA and of GA from AA exposure in rats, a study on short-term oral exposure of rats was used[24]. […] Blood samples were collected and AA- and GA-adducts to N-terminal valine in Hb were measured as described above, and recalculated to the daily increment of the adduct level. […]

**Q.** For `NC(=O)C1CO1` (racemic) [GA, rac-Glycidamide], which AUC-GA ([1]; Rat (male F344), 500 and 2000 μg AA/kg bw and day in drinking water, one week, n = 6, from Hb adducts) is on record?
**A.** Its AUC-GA is 18 nM·h/μg AA per kg bw and 18 ± 1 nM·h/μg AA per kg bw.

**Q.** What about the “AUC of GA” value ([1]; SD rat (male), subchronic intraperitoneal AA, Hb adducts on cysteine site) of the same compound?
**A.** Its value is 16.3 nM·h per μg AA per kg bw.

**Q.** What about the AUC-GA ([1]; male F344 rats, single dose 0.1 mg AA/kg bw, Hb adducts, ref Tareke et al. (2006)) of the same compound?
**A.** Its AUC-GA is 14 nM·h/ μg AA per kg bw.

**Q.** And the AUC-GA [2]?
**A.** The AUC-GA was 19 nM·h/ μg AA per kg bw.

**Q.** And the “ratio between species (rat-to-human) of AUC-GA per AUC-AA” value [3]?
**A.** The value was 2.3.

From publication PMC5730592, “Parallelogram based approach for in vivo dose estimation of genotoxic metabolites in humans with relevance to reduction of animal experiments” (Scientific Reports, 2017)
